Assay results taken from patent US20230201313A1, “METHODS OF TREATING LEFT VENTRICLE HYPERTROPHY” (Amgen Inc., priority 2020, published 2023).
Entries after “also recorded” stand apart in the source; their conditions may differ.

How the values were obtained:
[1] = test system: PTH; conditions: Hansen et al. 2012; cited from earlier work
[2] = test system: FGF23; conditions: Hansen et al. 2012; cited from earlier work
[3] = test system: maintenance hemodialysis patients with secondary hyperparathyroidism (SHPT) and LVH; assay: Single blinded randomized 12-month trial, etelcalcetide vs alfacalcidol: left ventricular mass index (LVMI) by cardiac MRI; format: in vivo, human; conditions: for estimated adjusted mean difference in the change of LVMI: ANCOVA, 1 year vs baseline, etelcalcetide group compared to alfacalcidol group
From the text: For the study, 62 patients were recruited, of which 30 patients were randomized to treatment with alfacalcidol and 32 to treatment with etelcalcetide. During the course of the 12-month study, ten patients dropped out during follow-up. Data for the main outcome (left ventricular mass index, LVMI in g/m^2) was available for the patients at baseline (enrollment) and at the 1-year follow-up, except for three patients as noted in Example 1. FIG. 1A illustrates a flow chart of the study design. Turning now to FIGS. 2A-2B, data from the study is presented. […] Thus, the 10 patients who dropped out during the study are removed from the analysis. FIG. 2A is a boxplot of the unadjusted primary endpoint for the alfacalcidol and the etelcalcetide treatment groups. […] The unadjusted comparison of the primary endpoint by a 2-sample equal variances t-test yields a significant difference in LVMI change between the treatment groups (p=0.007156). Due to the non-normal distribution of the data, a non-parametric 2-sample Wilcoxon test was also performed to confirm the result (p=0.0006661). An analysis adjusted for the stratification of the randomization was conducted using an Analysis of Covariance (ANCOVA) with outcome variable “Change of LVMI” and using the randomization stratification factors (residual kidney function, center of recruitment) as well as the LVMI at baseline as covariates. […] The associated p-value was 0.00809, in accordance with the result of the unadjusted analysis. In another analysis of the data, referred to as in intention-to-treat analysis, all patients who were randomized for the study are included in the data analysis. Thus, for the 10 patients who dropped out during the study all available measurements are used at the time they were taken. Out of those, for the 3 patients without MRI measurements the outcome values are imputed (obtained as mean values from patients of the same medication group with stratification factors identical to the patient with missing data). Final data on the primary study endpoint, difference of LVMI (g/m^2) at 1 year and LVMI at baseline, for the 62 patients who were randomized for the study is shown in FIG. 2B. The unadjusted comparison of the primary endpoint by a 2-sample equal variances t-test yields a significant difference in LVMI change between the treatment groups (p=0.04691). However, due to the distribution of the data the non-parametric Wilcoxon test is deemed more reliable and confirms the results (p=0.006098). […] The associated p-value was 0.031, in accordance with the result of the unadjusted analysis. Study Overview: A single blinded randomized trial of twelve months to test the effects of etelcalcetide compared to alfacalcidol on LVH and cardiac fibrosis in maintenance hemodialysis patients with secondary hyperparathyroidism (SHPT) was conducted. Both treatment regimens were titrated to equally suppress SHPT. Patients treated three times weekly with hemodialysis for between about 3 months and about 3 years and with parathyroid hormone (PTH) levels ≥300 pg/ml and LVH were enrolled. The primary study endpoint was left ventricular mass index (LVMI) determined in g/m^2 at baseline and at 12 months by cardiac MRI (cMRI). […] Due to the strong association of volume overload and LVH, randomization was additionally stratified by residual kidney function and regular body composition monitoring was performed to control patients' volume status. […]

[4] = test system: FGF23; assay: Trial secondary endpoint: FGF23 blood levels; format: in vivo, human; conditions: 55 individuals, 12-month follow-up, FIGS. 4A-4B, versus alfacalcidol group
From the text: In FIGS. 4A-4B, the data on FGF23 blood levels for the subjects in each treatment group is shown. On average, 8 measurements were available throughout follow-up for each individual.
(§1) Outcomes measurements: Laboratory analyses: Biochemical data was collected prior to hemodialysis at baseline and periodically (e.g., intact PTH, calcium, phosphate, 25-OH-Vit-D, 1,25-(OH)2-Vit-D every two weeks during the first 10 weeks followed by measurements every 4 weeks; while intact FGF23, s-klotho, proBNP and pre+postdialysis TnT was measured in 8-week-intervals). Additionally, a RAAS fingerprint was conducted before start and at the end of the treatment phase. The RAAS fingerprint is a mass spectrometry-based quantification of angiotensin metabolites. […]
(§2) Intact PTH, calcium and phosphate were analyzed in serum samples using the Cobas assay (Roche, reference range of PTH: 15-65 pg/mL, calcium: 2.15-2.55 mmol/L, phosphate: 0.81-1.45 mmol/L). Vitamin D was measured using serum samples and a chemiluminescent-immunoassays (Diasorin, reference range of 1.25-(OH)2-VitD: 19.9-79.3 pg/mL; 25-OH-Vit-D 75-250 nmol/L). Ionized calcium was measured during every dialysis session (using blood gas analysis (ABL 800 Flex, Drott)). Intact FGF23 was analyzed in plasma samples using chemiluminescent—Immunoassays (DiaSorin, reference range 23.2-95.4 pg/mL). […]

[5] = test system: calcium; assay: Trial secondary endpoint: calcium blood levels; format: in vivo, human; conditions: 55 individuals, 12-month follow-up, FIGS. 5A-5B, versus alfacalcidol group
From the text: In FIGS. 5A-5B, the calcium blood levels for the subjects in each treatment group is shown. On average, 17 measurements were available throughout follow-up for each individual.
as §1, §2

[6] = test system: PTH; conditions: single intravenous dose, patients on hemodialysis; cited from earlier work
[7] = test system: FGF23; conditions: at 24 hours after a single 10 mg dose; cited from earlier work
[8] = test system: 1.25(OH)2 vitamin D; conditions: after a single 10 mg dose; cited from earlier work

Row | SMILES | decrease of PTH levels [1] [%] | increase of FGF23 levels [2] | Prevention of LVH progression ([3]; dialysis patients with sHPT, compared to alfacalcidol) | LVMI progression ([3]; dialysis patients with sHPT, compared to treatment with alfacalcidol) | estimated adjusted mean difference in the change of LVMI ([3]; intention-to-treat analysis (62 randomized patients), p=0.031) | effect on LVH and cardiac fibrosis ([3]; patients under maintenance hemodialysis, through a suppression of FGF23) | estimated adjusted mean difference in the change of LVMI ([3]; per-protocol analysis (52 patients who completed), p=0.00809) | FGF23 blood levels, overall measurements and longitudinal behavior [4] | calcium blood levels, overall measurements and longitudinal behavior [5] | duration of lowering of serum levels of PTH [6] | decrease of FGF23 levels [7] | effect on 1.25(OH)2 vitamin D levels [8]
1 | C=C1/C(=C\C=C2/CCC[C@]3(C)[C@@H]([C@H](C)CCCC(C)C)CC[C@@H]23)C[C@@H](O)C[C@@H]1O [Alfacalcidol] | ≥ 30 | threefold | – | – | – | – | – | – | – | – | – | –
2 | CC(=O)N[C@H](CSSC[C@H](N)C(=O)O)C(=O)N[C@H](C)C(=O)N[C@H](CCCNC(=N)N)C(=O)N[C@H](CCCNC(=N)N)C(=O)N[C@H](CCCNC(=N)N)C(=O)N[C@H](C)C(=O)N[C@H](CCCNC(=N)N)C(N)=O [etelcalcetide, (2R)-3-[[(2S)-2-acetamido-3-[[(2R)-1-[[(2R) [[(2R)-1-[[(2R)-1-[[(2R)-1-[[(2R)-1-amino-5-(diaminomethydeneamino)-1-oxopentanyl]amino]-1-oxopropan-2-yl]amino]-5-(diaminomethydeneamino)-1-oxopentan-2-yl]amino]-5-(diaminomethydeneamino)-1-oxopentan-2-yl]amino]-5-(diaminomethydeneamino)-1-oxopentan-2-yl]amino]-1-oxopropan-2-yl]amino]-3-oxopropyl]disulfanyl]-2-aminopropanoic acid] | – | – | 6-8% | prevented LVMI progression | −6.2 (95% confidence interval −11.72 to −0.71) g/m^2 | effectively ameliorates LVH and cardiac fibrosis | −8.2 (95% confidence interval −13.99 to −2.39) g/m^2 | lower values which were decreasing over time; also recorded: decreased FGF23 levels | lower values which were decreasing over time | up to 72 hours | over 30% | little or no effect
